How the values were obtained:
[1] = target: T1, Glucocorticoid receptor (Homo sapiens, UniProt P04150)
T1 sequence (P04150 whole entry): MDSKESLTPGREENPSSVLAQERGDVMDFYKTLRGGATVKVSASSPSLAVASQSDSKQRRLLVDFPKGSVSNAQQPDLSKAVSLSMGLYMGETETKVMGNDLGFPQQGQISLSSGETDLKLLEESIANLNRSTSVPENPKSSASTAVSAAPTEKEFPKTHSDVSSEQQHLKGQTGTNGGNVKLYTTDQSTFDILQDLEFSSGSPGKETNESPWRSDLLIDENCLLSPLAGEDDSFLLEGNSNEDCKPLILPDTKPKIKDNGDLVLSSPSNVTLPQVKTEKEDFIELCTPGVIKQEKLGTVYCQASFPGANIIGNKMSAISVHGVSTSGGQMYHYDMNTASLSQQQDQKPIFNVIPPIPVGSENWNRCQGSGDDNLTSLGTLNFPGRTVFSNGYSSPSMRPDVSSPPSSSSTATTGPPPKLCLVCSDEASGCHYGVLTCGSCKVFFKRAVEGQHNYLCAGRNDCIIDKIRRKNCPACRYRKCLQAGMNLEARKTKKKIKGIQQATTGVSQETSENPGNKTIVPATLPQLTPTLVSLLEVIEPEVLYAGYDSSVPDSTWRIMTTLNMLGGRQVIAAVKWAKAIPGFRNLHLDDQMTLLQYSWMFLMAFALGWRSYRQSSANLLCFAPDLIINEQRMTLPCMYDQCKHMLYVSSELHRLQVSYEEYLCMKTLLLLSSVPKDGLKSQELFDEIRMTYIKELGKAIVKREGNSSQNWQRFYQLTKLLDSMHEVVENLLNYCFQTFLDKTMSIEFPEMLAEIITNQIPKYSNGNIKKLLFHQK

[2] = target: T2, Progesterone receptor (Homo sapiens, UniProt P06401)
T2 sequence (P06401 whole entry): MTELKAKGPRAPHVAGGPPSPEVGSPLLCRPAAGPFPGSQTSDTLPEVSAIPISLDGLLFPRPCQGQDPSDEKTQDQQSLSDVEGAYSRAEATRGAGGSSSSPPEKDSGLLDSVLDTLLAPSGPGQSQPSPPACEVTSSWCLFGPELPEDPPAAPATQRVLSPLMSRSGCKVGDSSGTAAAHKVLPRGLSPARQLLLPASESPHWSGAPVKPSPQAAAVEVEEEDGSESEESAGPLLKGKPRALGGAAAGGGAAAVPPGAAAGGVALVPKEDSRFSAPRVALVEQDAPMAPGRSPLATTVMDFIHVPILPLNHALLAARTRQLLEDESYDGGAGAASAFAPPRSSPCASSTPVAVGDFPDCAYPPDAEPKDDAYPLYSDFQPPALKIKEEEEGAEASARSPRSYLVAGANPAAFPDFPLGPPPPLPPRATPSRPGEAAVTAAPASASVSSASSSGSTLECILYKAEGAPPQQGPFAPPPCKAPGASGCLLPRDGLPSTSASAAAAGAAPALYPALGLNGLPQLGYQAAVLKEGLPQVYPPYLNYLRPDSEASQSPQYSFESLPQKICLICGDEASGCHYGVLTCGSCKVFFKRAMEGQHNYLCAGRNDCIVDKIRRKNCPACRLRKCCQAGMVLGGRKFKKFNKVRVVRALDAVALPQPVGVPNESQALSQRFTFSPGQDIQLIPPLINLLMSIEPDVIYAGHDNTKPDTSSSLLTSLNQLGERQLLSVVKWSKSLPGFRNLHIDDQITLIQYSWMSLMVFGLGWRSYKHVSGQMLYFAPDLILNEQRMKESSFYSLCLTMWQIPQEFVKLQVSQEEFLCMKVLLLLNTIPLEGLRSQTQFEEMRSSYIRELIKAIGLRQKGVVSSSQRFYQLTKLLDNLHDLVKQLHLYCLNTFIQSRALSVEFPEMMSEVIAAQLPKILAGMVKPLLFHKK

[3] = target: T3, Estrogen receptor (Homo sapiens, UniProt P03372)
T3 sequence (P03372 whole entry): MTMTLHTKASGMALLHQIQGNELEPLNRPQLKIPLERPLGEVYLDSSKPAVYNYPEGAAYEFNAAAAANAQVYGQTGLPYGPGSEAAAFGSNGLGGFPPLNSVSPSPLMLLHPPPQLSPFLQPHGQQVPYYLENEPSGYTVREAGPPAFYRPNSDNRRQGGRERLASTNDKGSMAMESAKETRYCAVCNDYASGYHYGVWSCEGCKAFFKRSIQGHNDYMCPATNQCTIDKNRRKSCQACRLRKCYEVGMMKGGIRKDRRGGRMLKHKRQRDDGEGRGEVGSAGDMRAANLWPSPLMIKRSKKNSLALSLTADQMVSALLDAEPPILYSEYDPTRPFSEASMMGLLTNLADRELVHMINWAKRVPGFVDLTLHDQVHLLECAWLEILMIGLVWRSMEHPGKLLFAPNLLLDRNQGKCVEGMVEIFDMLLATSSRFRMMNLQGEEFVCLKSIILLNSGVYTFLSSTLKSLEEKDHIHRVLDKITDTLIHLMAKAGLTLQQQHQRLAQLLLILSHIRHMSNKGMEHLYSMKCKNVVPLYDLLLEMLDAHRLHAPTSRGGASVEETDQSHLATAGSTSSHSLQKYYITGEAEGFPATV

[4] = target: T4, Androgen receptor (Rattus norvegicus, UniProt P15207)
T4 sequence (P15207 whole entry): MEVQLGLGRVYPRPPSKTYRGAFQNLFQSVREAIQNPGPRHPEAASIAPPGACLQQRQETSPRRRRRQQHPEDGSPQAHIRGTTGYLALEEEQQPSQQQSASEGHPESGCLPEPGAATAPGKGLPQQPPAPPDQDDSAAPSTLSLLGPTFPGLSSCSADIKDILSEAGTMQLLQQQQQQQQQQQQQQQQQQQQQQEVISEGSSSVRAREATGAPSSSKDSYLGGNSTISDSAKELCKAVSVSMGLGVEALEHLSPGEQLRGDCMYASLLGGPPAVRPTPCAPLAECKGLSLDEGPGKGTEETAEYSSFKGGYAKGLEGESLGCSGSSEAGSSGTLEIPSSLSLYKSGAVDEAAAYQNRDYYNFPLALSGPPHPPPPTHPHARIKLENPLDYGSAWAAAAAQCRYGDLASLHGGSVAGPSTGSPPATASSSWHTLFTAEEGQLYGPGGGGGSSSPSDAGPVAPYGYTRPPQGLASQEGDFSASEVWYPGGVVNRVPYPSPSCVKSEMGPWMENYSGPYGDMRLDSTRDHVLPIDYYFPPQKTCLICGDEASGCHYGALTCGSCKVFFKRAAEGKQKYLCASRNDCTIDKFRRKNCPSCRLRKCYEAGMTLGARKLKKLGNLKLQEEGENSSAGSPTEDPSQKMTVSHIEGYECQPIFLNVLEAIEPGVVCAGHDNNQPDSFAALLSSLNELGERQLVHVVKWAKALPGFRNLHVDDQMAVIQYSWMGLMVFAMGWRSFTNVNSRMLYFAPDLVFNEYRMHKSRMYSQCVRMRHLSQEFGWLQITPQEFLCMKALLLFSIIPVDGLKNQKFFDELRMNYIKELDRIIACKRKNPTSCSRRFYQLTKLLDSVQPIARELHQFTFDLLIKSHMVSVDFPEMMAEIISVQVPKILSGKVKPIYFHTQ

Ki [1] | IC50 [2] | IC50 [3] | IC50 [4] | Compound
0.043 µM | – | – | – | CC(=O)OC1(C(C)=O)CCC2C3CC(C)C4=CC(=O)CCC4(C)C3CCC21C (stereo not drawn) [NSC_4042]
> 10 µM | 0.04 µM | > 10 µM | 9.7 µM | CNC(=O)OC1C[C@]2(C)C(=CC1O)C=C1C(=C(C)C(=O)N1C)[C@H]2C (stereo partly drawn) [CP8863]
> 5 µM | 0.025 µM | > 10 µM | – | COC1C=C2C=C3C(=C(C)C(=O)N3C)[C@@H](C)[C@]2(C)CC1OC(=O)N(C)C (stereo partly drawn) [CP8816]
